Values quoted from earlier work as cited in US9937141B2, “Carcinoma diagnosis and treatment, based on ODC1 genotype” (The Arizona Board of Regents on Behalf of the University of …, priority 2009, dated 2018).
Blank lines part the entries; values can stand above or below the molecule they belong to.

Legend:
[1] = human, in vivo
prostoglandin E2 (PGE2) = conditions: 300 mg/day, one month
tumor putrescine = conditions: DFMO infusion, without suppressing peripheral platelet counts

Skin rash and pruritus, patients affected [1]: 5% | mild gastrointestinal effects, patients affected [1]: ~20% | time to peak plasma levels (fasting patients): about 2 hours | drug absorbed after oral administration (oral): about 90%
SMILES: CC1=C(CC(=O)O)c2cc(F)ccc2/C1=C\c1ccc([S+](C)[O-])cc1 (stereo not shown) [Sulindac, (Z)-5-fluoro-2-methyl-1-((4 (methylsulfin-yl)phenyl)methylene) 1H-indene-3-acetic acid]

SMILES: CC1=C(CC(=O)O)c2cc(F)ccc2/C1=C\c1ccc(S(C)(=O)=O)cc1 [Sulindac sulfone]
COX-inhibitory activity (COX): lacks COX-inhibitory activity

SMILES: CC(C)Cc1ccc(C(C)C(=O)O)cc1 (stereo not shown) [ibuprofen]
PGE2 levels in flat mucosa (prostoglandin E2 (PGE2)): significant decrease

SMILES: NCCCC(N)(C(=O)O)C(F)F (racemic) [DFMO, 2-(difluoromethyl)-dl-ornithine]
decrease in tumor putrescine levels (tumor putrescine): 90%
